Source: patent US9301526B2, “Compounds with nematicidal activity” (BAYER INTELLECTUAL PROPERTY GMBH, priority 2011, dated 2016)

Tested on: Meloidogyne incognita
Assay: Meloidogyne incognita test (gall formation on salad seedlings in sand)
Format: in vivo
Conditions: application rate 20 ppm; after 14 days; 100% = no galls, 0% = galls equal to untreated control
Protocol: Meloidogyne Incognita—Test
Solvent: 125.0 parts by weight of acetone
To produce a suitable preparation of active compound, 1 part by weight of active compound is mixed with the stated amount of solvent, and the concentrate is diluted with water to the desired concentration. Vessels are filled with sand, a solution of the active ingredient, a suspension containing eggs and larvae of Meloidogyne incognita and salad seeds. The salad seeds germinate and the seedlings grow. Galls develop in the roots.
After 14 days the nematicidal activity is determined on the basis of the percentage of gall formation. 100% means that no galls were found; 0% means that the number of galls found on the roots of the treated plants was equal to that in untreated control plants.

Row | Compound | nematicidal activity on the basis of the percentage of gall formation [%]
1 | CC(Cc1ncc(C(F)(F)F)cc1Cl)NC(=O)c1ccccc1C(F)F (centres unmarked) [Ia-154] | 100
2 | O=C(NCCc1cnc(C(F)(F)F)cc1Cl)c1c(F)cccc1F [Ib-51] | 70
3 | CC(CNC(=O)c1ccccc1C(F)(F)F)c1ccc(C(F)(F)F)cn1 (centres unmarked) [Ia-46] | 100
4 | CC(Cc1ncc(C(F)(F)F)cc1Cl)NC(=O)c1ccccc1C(F)(F)F (single isomer, unassigned) [Ia-122] | 100
5 | CC(Cc1ncc(C(F)(F)F)cc1Cl)NC(=O)c1ccccc1[N+](=O)[O-] (centres unmarked) [Ia-196] | 90
6 | O=C(NCCc1cnc(C(F)(F)F)cc1Cl)c1ccccc1C(F)F [Ib-50] | 70
7 | O=C(NCCc1cnc(C(F)(F)F)cc1Cl)c1ccccc1C(F)(F)F [Ib-47] | 90
8 | CC(Cc1ncc(C(F)(F)F)cc1Cl)NC(=O)c1ccccc1C(F)(F)F (centres unmarked) [Ia-43] | 100
9 | O=C(NCCc1cc(F)ncc1F)c1ccccc1C(F)(F)F [Ic-7] | 100
10 | CN(C)C(CNC(=O)c1ccccc1Cl)c1ncc(C(F)(F)F)cc1Cl (centres unmarked) [Ia-211] | 90
11 | CC(Cc1ncc(C(F)(F)F)cc1Cl)NC(=O)c1ccccc1F (centres unmarked) [Ia-172] | 90
12 | CN(C)C(CNC(=O)c1ccccc1C(F)(F)F)c1ncc(C(F)(F)F)cc1Cl (centres unmarked) [Ia-212] | 90
13 | Cc1c(F)cccc1C(=O)NCC(C)c1ncc(C(F)(F)F)cc1Cl (centres unmarked) [Ia-70] | 100
14 | O=C(NCCc1cnc(C(F)(F)F)cc1Cl)c1ccccc1[N+](=O)[O-] [Ib-58] | 90
15 | O=C(NCCc1c(F)c(F)nc(F)c1F)c1ccccc1I [Ic-2] | 100
16 | CCC(CNC(=O)c1ccccc1C(F)(F)F)c1ccc(Cl)cn1 (centres unmarked) [Ia-131] | 100
17 | CC(CNC(=O)c1ccccc1I)c1ncc(Cl)cc1Cl (centres unmarked) [Ia-114] | 100
18 | CC(NC(=O)c1ccccc1C(F)(F)F)C(CC1CC1)c1ncc(C(F)(F)F)cc1Cl (mixture of isomers) [Ia-143] | 100

Row | Compound | nematicidal activity on the basis of the percentage of gall formation [%]
19 | CC(Cc1ncc(C(F)(F)F)cc1Cl)NC(=O)c1c(F)cccc1C(F)(F)F (centres unmarked) [Ia-174] | 90
20 | CC(C)(CNC(=O)c1ccccc1C(F)(F)F)c1ncc(C(F)(F)F)cc1Cl [Ia-93, N-{2-[3-chloro-5-(trifluoromethyl)pyridin-2-yl]-2-methylpropyl}-2-(trifluoromethyl)benzamide] | 100
21 | CC(Cc1ncc(C(F)(F)F)cc1Cl)NC(=O)c1c(F)cccc1F (centres unmarked) [Ia-170] | 90
22 | CC(CNC(=O)c1ccccc1I)c1ccc(C(F)(F)F)cn1 (centres unmarked) [Ia-47] | 100
23 | O=C(NCC(F)(F)c1ncc(C(F)(F)F)cc1Cl)c1ccccc1C(F)(F)F [Ia-148] | 100
24 | CC(CNC(=O)c1ccccc1C(F)(F)F)c1ncc(Cl)cc1Cl (centres unmarked) [Ia-113] | 100
25 | CC(Cc1ncc(C(F)(F)F)cc1Cl)NC(=O)c1ccccc1Cl (centres unmarked) [Ia-141] | 100
26 | O=C(NCCc1c(F)c(F)nc(F)c1F)c1ccccc1C(F)(F)F [Ic-1] | 100
27 | CC(CNC(=O)c1ccccc1I)c1ccc(C(F)(F)F)c(Cl)n1 (centres unmarked) [Ia-50] | 100
28 | CC(CNC(=O)c1ccccc1I)c1ncc(C(F)(F)F)cc1Cl (centres unmarked) [Ia-177] | 100
29 | CCC(Cc1ncc(C(F)(F)F)cc1Cl)NC(=O)c1ccccc1C(F)(F)F (centres unmarked) [Ia-110] | 100
30 | CC(Cc1ncc(Cl)cc1Cl)NC(=O)c1ccccc1C(F)(F)F (centres unmarked) [Ia-3] | 100
31 | CC(Cc1ncc(C(F)(F)F)cc1Cl)NC(=O)c1ccccc1I (centres unmarked) [Ia-140] | 100
32 | O=C(NCC(F)(F)c1ncc(Cl)cc1Cl)c1ccccc1I [Ia-142] | 100
33 | CC(CNC(=O)c1ccccc1C(F)(F)F)c1ncc(C(F)(F)F)cc1Cl (centres unmarked) [Ia-92] | 100
34 | CC(Cc1ncc(C(F)(F)F)cc1Cl)NC(=O)c1ccccc1Br (centres unmarked) [Ia-153] | 100
35 | Cc1cc(CCNC(=O)c2ccccc2C(F)(F)F)c(Cl)cn1 [Ic-5] | 90

Tested on: Cooperia curticei larvae
Assay: Cooperia curticei test (COOPCU), larval mortality
Format: in vivo
Conditions: application rate 100 ppm; after 5 days; 100% = all larvae killed
Protocol: Cooperia Curticei-Test (COOPCU)
(§1) Solvent: dimethyl sulfoxide
(§2) To produce a suitable preparation of active compound, 10 mg of active compound are dissolved in 0.5 ml solvent, and the concentrate is diluted with “Ringer's solution” to the desired concentration.
Approximately 40 Cooperia curticei larvae are transferred into a test tube containing compound solution. After 5 days percentage of larval mortality are recorded. 100% efficacy means all larvae are killed; 0% efficacy means no larvae are killed.

Row | Compound | activity (percentage of larval mortality) [%]
36 | CCc1ccc(C(=O)NCCc2ccnc(OC)c2)cc1 [Ic-58] | 80
37 | O=C(NCCc1c(Cl)cncc1Cl)c1ccc(F)c(F)c1 [Ic-26] | 80
38 | COc1cc(CCNC(=O)c2ccccc2OC)ccn1 [Ic-59] | 90
39 | O=C(NCCc1cnc(C(F)(F)F)cc1Cl)c1ccccc1F [Ib-48] | 90
40 | COc1cc(CCNC(=O)c2cccc(Cl)c2)ccn1 [Ic-75] | 90
41 | COc1cc(CCNC(=O)c2ccc(C(F)(F)F)cc2)ccn1 [Ic-60] | 90

Tested on: Haemonchus contortus larvae
Assay: Haemonchus contortus test (HAEMCO), larval mortality
Format: in vivo
Conditions: application rate 20 ppm; after 5 days; 100% = all larvae killed
Protocol: Haemonchus contortus—Test (HAEMCO)
as §1, §2
Approximately 40 Haemonchus contortus larvae are transferred into a test tube containing compound solution. After 5 days percentage of larval mortality are recorded. 100% efficacy means all larvae are killed, 0% efficacy means no larvae are killed.

Row | Compound | activity (percentage of larval mortality) [%]
42 | O=C(NCCc1cnc(C(F)(F)F)cc1Cl)c1ccccc1Br [Ib-52] | 80

Same assay, conditions: application rate 100 ppm; after 5 days; 100% = all larvae killed

Row | Compound | activity (percentage of larval mortality) [%]
43 | O=C(NCCc1cnc(C(F)(F)F)cc1Cl)c1c(F)cccc1F [Ib-51] | 90
44 | O=C(NCCc1cnc(C(F)(F)F)cc1Cl)c1ccccc1Cl [Ib-49] | 100
45 | O=C(NCCc1cnc(C(F)(F)F)cc1Cl)c1ccccc1C(F)F [Ib-50] | 100
46 | O=C(NCCc1cnc(C(F)(F)F)cc1Cl)c1ccccc1C(F)(F)F [Ib-47] | 100
47 | O=C(NCCc1cc(F)ncc1F)c1ccccc1C(F)(F)F [Ic-7] | 100
48 | COC(=O)C(CNC(=O)c1ccccc1C(F)(F)F)c1ncc(C(F)(F)F)cc1Cl (centres unmarked) [Ia-5] | 80
49 | O=C(NCCc1cnc(C(F)(F)F)cc1Cl)c1ccccc1F [Ib-48] | 90
50 | O=C(NCCc1c(F)c(F)nc(F)c1F)c1ccccc1C(F)(F)F [Ic-1] | 100
51 | COC(=O)C(CNC(=O)c1ccccc1C(F)(F)F)(C(=O)OC)c1ncc(C(F)(F)F)cc1Cl [Ia-1] | 90
52 | CCOC(=O)C(CNC(=O)c1ccccc1C(F)(F)F)(C(=O)OC)c1ncc(C(F)(F)F)cc1Cl (centres unmarked) [Ia-6] | 80
53 | O=C(NCC1(c2ccc(Cl)cn2)CC1)c1ccccc1C(F)(F)F [Ia-48] | 80
